The results in this text go back to paper PMC13095444, “Discovery of RGS2-FBXO44 interaction inhibitors using a cell-based NanoBit assay” (Molecular Pharmacology, 2025).

What is called IC50 is the concentration needed to halve the response being measured.

Molecules are shown by their SMILES.

One data set has as its target T1, RGS2-FBXO44 interaction (Homo sapiens, UniProt P41220).
T1 construct: expressed in transfected cells
T1 sequence (P41220 1-211): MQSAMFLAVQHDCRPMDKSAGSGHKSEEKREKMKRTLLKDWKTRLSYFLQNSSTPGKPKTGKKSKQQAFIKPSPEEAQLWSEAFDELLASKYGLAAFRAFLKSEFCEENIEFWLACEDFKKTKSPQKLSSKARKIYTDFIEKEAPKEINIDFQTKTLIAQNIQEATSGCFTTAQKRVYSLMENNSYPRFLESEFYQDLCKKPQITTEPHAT
Description: RGS2-FBXO44 NanoBit assay (HEK-293T RGS2-SmBiT/LgBiT-FBXO44 stable clone #6). In kind it is cell-based. Conditions: for % Inhibition @ 100 μM of RGS2-FBXO44 NanoBit signal: 16–18 hours, fresh powder, luminescence normalized to viability, vs nontreated cells; for IC50: concentrations 500 to 0.01 μM, RLU normalized to viability (RFU), read-out: IC50 (μM), inhibition of RGS2-FBXO44 NanoBit signal. The protocol:
Nano-Glo Live Cell Substrate (LCS) was diluted 1:50 in HBSS to form a 2× stock, and then, 15 μL was added to each well. Plates were shaken on an orbital shaker at 500 rpm for 5 minutes protected from light and then spun down at 1000 rpm for 30 seconds. Plates were incubated at room temperature for 20 minutes, and then, luminescence was detected on a Synergy Neo2 multimode plate reader.
(§1) HEK-293T-RGS2-FBXO44 NanoBit cells were treated for 16–18 hours with compound at 100 μM. This relatively high concentration was chosen because of the challenging nature of our assay (intracellular PPI inhibition). Parental HEK-293T cells were used as a negative control. […] Based on these criteria, 97 compounds were identified as hits from our primary screen (6.1% initial hit rate). To confirm hits, the same assay was repeated in triplicate, which delivered 34 compounds that reached the threshold for inhibition in at least 2 replicates with <25% cell toxicity (Fig. 2C; Supplemental Table 1), thus rendering a final hit rate of 2.1%.
Fresh powders of 20 compounds were purchased and reassayed for their ability to inhibit the RGS2-FBXO44 NanoBit signal, using the same assay paradigm as in the primary screen (Fig. 3; Table 1). […] Nevertheless, all compounds were confirmed to inhibit the RGS2-FBXO44 NanoBit signal at this high concentration.
We next assessed the concentration-dependent effect of our 20 hits. Compounds were assayed at concentrations ranging from 500 to 0.01 μM. NanoBit luminescence (relative luminescence units) was normalized to viability (RFU) and presented as a percentage of untreated cells.

In data set [1] the test system is HEK-293T-RGS2-FBXO44 NanoBit cells. Description: Cell viability assay (GF-AFC fluorescence) multiplexed with NanoBit. In kind it is cell-based, Human. The note with it: for Viability (% of Control): 16–18 hours. The protocol: The cells were plated in DMEM without phenol red (Gibco, #21063), 0.1% BSA in a white, tissue culture-treated 384-well plate (Perkin Elmer) at 15,000 cells/well, unless indicated otherwise, and allowed to attach. The plate was centrifuged at 212 × g for 30 seconds to aid in even cell adherence. Compound treatments were initiated 4–5 hours after plating. Following indicated treatment times, media was removed from the plate using BioTek ELx405 plate washer. Additionally, 10 μL of Hank’s Balanced Salt solution (HBSS) with 0.1% BSA was added to each well, followed by 5 μL of glycyl-phenylalanyl-aminofluorocoumarin (GF-AFC; MP Biomedicals) diluted 1:1000 in 100 mM HEPES. Plates were then centrifuged at 212 × g for 30 seconds and then incubated at 37 °C for 30 minutes. Fluorescence was detected on a Synergy Neo2 multimode plate reader (BioTek/Agilent).
Our primary assay using the HEK-293T RGS2-FBXO44 NanoBit cell line was extensively optimized to ensure maximum quality for screening. Coupling a fluorescent cell viability assay with our screen would allow us to rule out cytotoxic compounds while also hopefully reducing outliers from pipetting errors while plating cells. Thus, we multiplexed our NanoBit assay with cell viability using a cell-permeable fluorogenic protease substrate (glycyl-phenylalanyl-aminofluorocoumarin; GF-AFC; [Niles et al, 2007]), which can be combined with a luminescent readout without interfering with the luciferase signal. We previously utilized a similar multiplexing strategy in several screens ([Sjögren et al, 2012]; [Raveh et al, 2014]; [Sjögren et al, 2015]). We assessed and optimized treatment conditions (time, temperature, and reagent volume), cell density, buffer composition, and DMSO tolerance. In addition to the supplied proprietary LCS buffer (Promega), we also tested DMEM, 0.1% BSA, PBS, and HBSS (Supplemental Fig. 1A–C). […] The luminescent signal was stable up to 45 minutes after reagent addition, and we chose to run subsequent assays using 20 minutes of incubation time (Supplemental Fig. 1E). We also observed no effect on either viability or luminescence signal at DMSO concentrations <1% (Data not shown).
as §1

Turning to `CCOc1ccc(S(=O)(=O)N(Cc2cccn2C)C2CC2)cc1F` [Compound 6], at RGS2-FBXO44 interaction, the “% Inhibition @ 100 μM of RGS2-FBXO44 NanoBit signal” value (from here on “% Inhibition @ 100 μM”) is 36.8∗∗∗∗ % and the half-inhibitory concentration (IC50) was determined as 25.6 µM. Besides, the “Viability (% of Control)” value in data set [1] (100 μM, fresh powder) was 116.6 % of Control.
For `O=S(=O)(C1CC1)N1CCCCC(c2ccc(Cl)cc2)C1` (stereo not drawn) [Compound 9], on RGS2-FBXO44 interaction, the “% Inhibition @ 100 μM” value is listed as 74.5∗∗∗∗ % and the IC50 was found to be 9.7 µM. Besides, the “Viability (% of Control)” value in data set [1] (100 μM, fresh powder) is given as 103.6 % of Control.
As to `CCOc1ccc(C(=O)NCc2ccnc(N3CCCCC3)n2)cc1` [Compound 4], on RGS2-FBXO44 interaction, the “% Inhibition @ 100 μM” value is on record as 47.2∗∗∗∗ % and the 50% inhibitory concentration (IC50) stood at 38.2 µM. In addition, the “Viability (% of Control)” value in data set [1] (100 μM, fresh powder) is 89.5 % of Control.
The corresponding values for `O=C(Cc1ccccc1Cl)N(CCc1cccs1)C1CCOCC1` [Compound 18] are 51.2∗∗∗∗ %, 122 µM and 81.5∗∗∗∗ % of Control.
In the case of `CCOc1cc(C)c(C)cc1S(=O)(=O)N1CCN(c2ccccc2)CC1` [Compound 11], at RGS2-FBXO44 interaction, the “% Inhibition @ 100 μM” value was 49.6∗∗∗∗ % and the IC50 is 29 µM. Also, the “Viability (% of Control)” value in data set [1] (100 μM, fresh powder) is on record as 139.6 % of Control.
With `CCOc1ccc(S(=O)(=O)N2CCCCCC2)cc1C` [Compound 8], at RGS2-FBXO44 interaction, the “% Inhibition @ 100 μM” value is recorded as 86.1∗∗∗∗ % and the IC50 is 9.2 µM. Moreover, the “Viability (% of Control)” value in data set [1] (100 μM, fresh powder) is recorded as 80.6∗∗∗∗ % of Control.
The matching figures for `Cc1cc(N2CCCC2)nc(N2CCN(C(=O)c3ccccc3C)CC2)n1` [Compound 3]: 40.6∗∗∗∗ %, 78.9 µM and 54.1∗∗∗∗ % of Control.
For `O=C(NCC1(O)CCOc2ccccc21)C1(c2ccc(Cl)cc2)CCCC1` (stereo not drawn) [Compound 12], at RGS2-FBXO44 interaction, the “% Inhibition @ 100 μM” value is recorded as 32.6∗∗∗∗ % and the IC50 turned out to be 5.8 µM. The “Viability (% of Control)” value in data set [1] (100 μM, fresh powder) is 116.6 % of Control.
For the molecule `Cc1cc(C)c(C)c(Cn2c(CCNC(=O)CCC(C)O)nc3ccccc32)c1C` (stereo not drawn) [Compound 15], at RGS2-FBXO44 interaction, the “% Inhibition @ 100 μM” value was 50.2∗∗∗∗ % and the IC50 was 20.3 µM. In addition, the “Viability (% of Control)” value in data set [1] (100 μM, fresh powder) is 68.5∗∗∗∗ % of Control.
`Cc1nc(N2CCN(C(=O)c3cccc(N(C)C)c3)CC2)cc(C(F)(F)F)n1` [Compound 2]: at RGS2-FBXO44 interaction, the “% Inhibition @ 100 μM” value is listed as 68.0∗∗∗∗ % and the IC50 came to 72.2 µM. In addition, the “Viability (% of Control)” value in data set [1] (100 μM, fresh powder) was 101.9 % of Control.
`CCCOc1cc(S(=O)(=O)NCC2CCCO2)ccc1Cl` (stereo not drawn) [Compound 19]: on RGS2-FBXO44 interaction, the “% Inhibition @ 100 μM” value is 74.8∗∗∗∗ % and the IC50 was 39.6 µM. In data set [1] (100 μM, fresh powder), the “Viability (% of Control)” value was 85.8∗∗ % of Control.
As for `CCOc1ccc(C(=O)Nc2ccc3c(c2)N(C(=O)C(C)C)CCC3)cc1OCC` [Compound 5], at RGS2-FBXO44 interaction, the “% Inhibition @ 100 μM” value is given as 44.5∗∗∗∗ % and the IC50 came out at 151 µM. In addition, the “Viability (% of Control)” value in data set [1] (100 μM, fresh powder) is reported as 120.5 % of Control.
As to `COC1(CNC(=O)CCc2ccccc2)C2CC3CC(C2)CC1C3` (stereo not drawn) [Compound 14], at RGS2-FBXO44 interaction, the “% Inhibition @ 100 μM” value is listed as 70.7∗∗∗∗ % and the IC50 amounted to 67.4 µM. In addition, the “Viability (% of Control)” value in data set [1] (100 μM, fresh powder) was 93.9 % of Control.
The matching figures for `CSc1ccccc1C(=O)NCc1cc(C2CC2)n(C2CCCC2)n1` [Compound 17]: 69.0∗∗∗∗ %, 88.1 µM and 69.2∗∗∗∗ % of Control.
Turning to `O=C(N(CCc1ccccc1)Cc1ccccn1)C12CC3CC(CC(C3)C1)C2` [Compound 13], the “Cell toxicity (in words)” value in data set [1] (100 μM) is “almost complete cell toxicity”. In data set [1] (100 μM, fresh powder), the “Viability (% of Control)” value is recorded as 7.5∗∗∗∗ % of Control. Also, the “Cell toxicity at 100 μM” value in data set [1] (fresh powder) is listed as below 90%.
`Cc1cc(C)c(C)c(S(=O)(=O)N2CCCC2)c1C` [Compound 7]: at RGS2-FBXO44 interaction, the “% Inhibition @ 100 μM” value is 56.5∗∗∗∗ % and the IC50 turned out to be 42.1 µM. The “Viability (% of Control)” value in data set [1] (100 μM, fresh powder) is recorded as 91.7 % of Control.
